The record followed here is patent US20230233439A1, “METHOD FOR COSMETIC TREATMENT BY COMBINED ILLUMINATION AND APPLICATION OF A COMPOSITION COMPRISING NIACINAMIDE, AND ASSOCIATED DEVICE” (LIGHTINDERM, priority 2020, published 2023).

SMILES strings stand for the structures.

Holding throughout (format): cell-based
The test system of one experiment is interleukin-8. Briefly: Protection of UVA/UVB-irradiated keratinocytes measured by interleukin-8 production. On the procedure:
(§1) The inflammation of the cells and the measurement of the antiaging effect are based on the irradiation of a cell culture with a combination of UVA and UVB. […] Pure niacinamide at a concentration of 0.4 mg/mL or 1.2 mg/mL is used. For the treatments inducing illumination at 660 nm, 10 different programs are evaluated. These programs are defined in Table 1 below. [table] […] Free radicals are reactive and induce an inflammatory cascade characterized by the production of proinflammatory proteins (p53, pro-opiomelanocortin (POMC), interleukins, etc.) which can be measured in the cell supernatant. […] According to the protocol, at T+48 h, the cell supernatant is collected and the concentrations of interleukins 6 and 8 are measured and compared to the concentrations of interleukins 6 and 8 produced by cells exposed to UV and not subjected to any of the three abovementioned treatments (UV control) and to untreated and non-irradiated cells (non-irradiated control). A degree of protection of the treated cells relative to the UV control is evaluated according to the following formula: Non-irradiated cells show 100% protection and irradiated cells show 0% protection. […]

The next experiment relates to procollagen-1. Description: Procollagen-1 production by fibroblasts exposed to UVA and UVB. Particulars: niacinamide 0.4 mg/ml combined with illumination at 660 nm, programs 3 and 8; compared with niacinamide alone and with illumination alone; FIG. 3. How it is done:
The inflammation of the cells and the measurement of the antiaging effect are based on the irradiation of a cell culture with a combination of UVA and UVB. […] Pure niacinamide at a concentration of 0.4 mg/mL or 1.2 mg/mL is used. Attention is now focused on skin aging, known as “photoaging”, induced by UV exposure. One of the parameters of cutaneous aging observed clinically is the appearance of wrinkles associated in part with a decrease in collagen production by the cells of the dermis, the fibroblasts. […] The production of procollagen-1 produced by fibroblasts is measured in the supernatants obtained from the previously defined protocol in which the cells were illuminated either without any other treatment or in combination with niacinamide at a concentration of 0.4 mg/ml, and compared with treatment with niacinamide alone at a concentration of 0.4 mg/ml. The results are shown in FIG. 3 for illumination programs 3 and 8.

Another experiment has as its system interleukin-6. Description: Protection of UVA/UVB-irradiated keratinocytes measured by interleukin-6 production. How it is done:
as §1

The mark [1] stands for this setting: niacinamide 1.2 mg/ml combined with illumination at 660 nm, all illumination programs.

For the molecule `NC(=O)c1cccnc1` [niacinamide], the “protection of the skin cells (interleukin-8) compared with illumination alone at 660 nm” value in the experiment with interleukin-8 (setting [1]) is given as “much greater protection”. For the same molecule, the “protection of cells exposed to UV (interleukin-8 concentration)” value with interleukin-8 (niacinamide 1.2 mg/ml combined with pulsed illumination at 660 nm, all 10 programs, relative to UV-exposed cells and/or niacinamide alone, effects particularly visible, FIG. 2) is listed as “beneficial effect”. The “production of procollagen-1” value with procollagen-1 is given as “Increased production”. Also, the “protection of the skin cells (interleukin-6) compared with illumination alone at 660 nm” value with interleukin-6 (setting [1]) is listed as “much greater protection”. In the experiment with interleukin-6 (niacinamide 1.2 mg/ml combined with pulsed illumination at 660 nm, all 10 programs, relative to UV-exposed cells and/or niacinamide alone, FIG. 1), the “protection of cells exposed to UV (interleukin-6 concentration)” value was “beneficial effect”.
